Tests used:
[1] = system: R+G+ derived ventricular myocytes; assay type: cell-based, mouse
[2] = system: gap junctions (e.g. Connexin 43); assay: Heptanol wash-in / wash-out on muscular thin film; assay type: cell-based, mouse
Source text: FIGS. 10A-10D show the tissue engineered myocardium on a muscular thin film derived from cardiac progenitor cells. […] All the heptanol was not washed-out resulting in the reduced contractility after cell-cell electrical coupling was restored.

SMILES: NC1=N[C@H](O)[C@H]2[C@H]3O[C@]4(O)O[C@@H]([C@@H](O)[C@@]2(N1)[C@@H]4O)[C@]3(O)CO [TTX, tetrodotoxin]
- effect on the transmembrane action potential [1]: ablated the action potential

SMILES: CCCCCCCO [heptanol]
- contractions after heptanol wash-out ([2]; partial wash-out): partial washout restores contractions
- coupling of cardiomyocytes by gap junctions ([2]; wash-in then wash-out of heptanol, MTF contractile force over time): reversibly blocked

From US20120027807A1, “TISSUE ENGINEERED MYOCARDIUM AND METHODS OF PRODUCTION AND USES THEREOF” (THE GENERAL HOSPITAL CORPORATION, priority 2008, published 2012)
